Columns and labels:
CDHFD/NaNO2 rats = assay: Quantitative morphometric analysis of liver collagen by Picrosirius Red (PSR) staining in CDHFD/NaNO2 rat model of NASH; assay type: in vivo, male Wistar rats; conditions: week 4 to 14; for PSR area (% area of liver): mean±SEM, vehicle-treated CDHFD/NaNO2 rats 8.5±0.6%, healthy control 1.7±0.3%, Formula (I) 0.2% in diet, Formula (III) 30 mg/kg/day; for reduction of liver collagen (PSR): vs vehicle-treated CDHFD/NaNO2 rats, Formula (I) 0.2% admixture in diet, Formula (III) 30 mg/kg/day in diet
Protocol: The following study was conducted to evaluate the efficacy of the combination of an ASK1 inhibitor and an FXR agonist in a rodent model of non-alcoholic steatohepatitis (NASH), relative to the efficacy of the individual agents alone in the model. NASH was induced in male Wistar rats by administration of a choline-deficient high fat diet (CDHFD) combined with the chronic administration of sodium nitrite (CDHFD/NaNO2). The model capitalizes on the “two hit theory” of NASH by inducing both metabolic dysfunction (CDHFD) and oxidative stress (NaNO2) in the liver to result in hepatic fibrosis that is similar in character and severity to that seen in patients with advanced NASH. Rats were fed CDHFD for a total of 14 weeks and were administered NaNO2 from week 4 to 14. The compound of Formula (III) (given as admixture in diet, adjusted to deliver 30 mg/kg/day), compound of Formula (I) (administered as a 0.2% admixture in diet), or vehicle was administered from week 4 to 14. The following endpoints were assessed at the completion of the 14 week study: i) liver fibrosis measured by liver hydroxyproline (OHP) content and by quantitative morphometric analysis of collagen content by Picosirius red (PSR) staining; ii) myofibroblast activation in liver sections as measured by quantitative IHC of the myofibroblast marker desmin; and, iii) Col1a1 and Timp1 in liver tissue measured by RT-PCR. All CDHFD/NaNO2 animals were fed a choline-deficient high-fat diet (CDHFD; Research Diets, Inc) for 14 weeks and were also administered intraperitoneal injections of NaNO2 (3 injections per week; Sigma Aldrich #31443) at a dose of 25 mg/kg (from week 4 to 10) and at a dose of 12.5 mg/kg (from week 10 to 14). Formula (III) (given as admixture in the CDHFD diet, adjusted to deliver 30 mg/kg/day, n=10 animals per group) and Formula (I) (given as a 0.2% admixture in the CDHFD diet, n=10 per group) were administered drug from week 4 to 14. Vehicle control animals were administered the same CDHFD diet with no drug added (Vehicle; n=10 animals per group) from week 4 to 14. […] On the final day of study, rats received a single oral gavage of either Formula (I) or Formula (III) at a dose of 30 mg/kg, four hours before animals were euthanized and tissues were collected for analyses. All endpoints were assessed at the completion of the 14 week study protocol. Whole slide images of Picrosirius Red (PSR) and Desmin stained slides were captured using a Leica AT2 scanner at 40× magnification. […] Quantitative image analysis was performed on the whole slide-scan images using Definiens Tissue Studio Architect XD (Definiens Inc.) to determine the extent and intensity of PSR and Desmin. […] The total PSR-stained area and Desmin IHC staining were measured and expressed as a percentage of total liver area stained.

Col1a1 = assay: Hepatic expression of Col1a1 by qRT-PCR, CDHFD/NaNO2 rat model of NASH; assay type: in vivo, male Wistar rats; conditions: vs vehicle; rats; Formula (I) 0.2% in diet, Formula (III) 30 mg/kg/day, week 4 to 14
Protocol: The following study was conducted to evaluate the efficacy of the combination of an ASK1 inhibitor and an FXR agonist in a rodent model of non-alcoholic steatohepatitis (NASH), relative to the efficacy of the individual agents alone in the model. NASH was induced in male Wistar rats by administration of a choline-deficient high fat diet (CDHFD) combined with the chronic administration of sodium nitrite (CDHFD/NaNO2). The model capitalizes on the “two hit theory” of NASH by inducing both metabolic dysfunction (CDHFD) and oxidative stress (NaNO2) in the liver to result in hepatic fibrosis that is similar in character and severity to that seen in patients with advanced NASH. […] The following endpoints were assessed at the completion of the 14 week study: i) liver fibrosis measured by liver hydroxyproline (OHP) content and by quantitative morphometric analysis of collagen content by Picosirius red (PSR) staining; ii) myofibroblast activation in liver sections as measured by quantitative IHC of the myofibroblast marker desmin; and, iii) Col1a1 and Timp1 in liver tissue measured by RT-PCR. […] All endpoints were assessed at the completion of the 14 week study protocol. […] Quantitative PCR was performed and analyzed using Absolute QPCR Rox Mix (Life Technologies, Cat No # AB-1132) and a 384-format ABI 7900HT Sequence Detection System (Applied Biosystems). […]

Row | Compound | PSR area (% area of liver) (CDHFD/NaNO2 rats) [%] | reduction of liver collagen (PSR) (CDHFD/NaNO2 rats) [%] | reduction of hepatic Col1a1 expression induced by CDHFD/NaNO2 (Col1a1) [%]
1 | O=C(Nc1cccc(-c2nncn2C2CC2)c1)c1cc(-n2cnc(C3CC3)c2)ccn1 [Formula (I)] | 6.2±1.1 | 27 | 65
2 | O=C(O)c1ccnc(N2CC(O)(c3ccc(OCc4c(-c5c(Cl)cccc5Cl)noc4C4CC4)cc3Cl)C2)c1 [Formula (III)] | 6.6±0.9 | 22 | 44

Source: US20180133203A1, “METHODS OF TREATING LIVER DISEASE” (Gilead Sciences, Inc., priority 2016, published 2018)
